Assay results from US20100099725A1, “PEROXISOME PROLIFERATOR ACTIVATED RECEPTOR MODULATORS” (priority 2007, published 2010).
pEC50: −log10 of the molar value.

Columns and labels:
[1] = molecular target: T1, PXR (human SXR ligand binding domain) (Homo sapiens, UniProt O75469); assay: PXR Assay: GAL4PXR/GAL4 response element reporter assay in HuH7 cells; assay type: cell-based; settings: 24 h, versus maximum stimulation with rifampicin
T1 construct: expressed in transfected cells; host or cells: HuH7 (human liver) cells
T1 sequence (O75469 146-433 limits assumed): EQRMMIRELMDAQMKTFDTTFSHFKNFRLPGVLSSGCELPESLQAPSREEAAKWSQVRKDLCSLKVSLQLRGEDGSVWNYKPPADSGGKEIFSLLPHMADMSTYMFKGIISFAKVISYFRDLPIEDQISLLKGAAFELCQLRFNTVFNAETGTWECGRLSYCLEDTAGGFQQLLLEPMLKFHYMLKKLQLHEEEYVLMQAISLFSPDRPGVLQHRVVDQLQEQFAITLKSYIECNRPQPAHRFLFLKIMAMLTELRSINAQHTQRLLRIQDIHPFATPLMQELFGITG
Procedure: PXR Assay: GAL4PXR/GAL4 Response Element Reporter Assays in HuH7 Cells:
Human liver HuH7 cells are co-transfected using Fugene. The reporter plasmid, containing five Gal4 binding site and major late promoter of adenovirus upstream of the luciferase reporter cDNA, is transfected with a plasmid constitutively expressing a hybrid receptor consistent of GAL4 DNA binding domain and human SXR ligand binding domain using viral SV40 early promoter. Cells are transfected with 10 μg of total DNA/10^6 cells in T225 cm^2 flasks in DMEM:F12 (3:1) media with 10% charcoal-stripped Fetal Bovine Serum (FBS). After an overnight incubation, transfected cells are trypsinized, plated in 96 well dishes in DMEM:F12 (3:1) media with 10% charcoal-stripped FBS, incubated for 4 h and then exposed to 0.8 nM to 50 μM of test compounds in half log dilutions. After 24 h of incubations with compounds, cells are lysed and luciferase activity is determined Data is fit to a 4 parameter-fit logistics to determine EC50 values. The % efficacy is determined versus maximum stimulation obtained with rifampicin.

PPARα receptor = molecular target: T2, PPARα receptor (Homo sapiens, UniProt Q07869); assay: Binding and cotransfection studies, PPARα ("binding assay")
T2 sequence (Q07869 174-468 limits assumed): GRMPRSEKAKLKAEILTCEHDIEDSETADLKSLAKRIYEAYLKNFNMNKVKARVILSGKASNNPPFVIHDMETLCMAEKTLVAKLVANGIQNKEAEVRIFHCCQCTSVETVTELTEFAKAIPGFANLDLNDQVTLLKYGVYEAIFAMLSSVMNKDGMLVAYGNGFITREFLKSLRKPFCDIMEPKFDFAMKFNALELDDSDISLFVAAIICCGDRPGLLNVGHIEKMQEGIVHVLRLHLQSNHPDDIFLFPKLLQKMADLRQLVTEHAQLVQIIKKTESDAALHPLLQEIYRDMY
Procedure: (§1) DNA-dependent binding (ABCD binding) is carried out using SPA technology with PPAR receptors. Tritium-labeled PPARCX agonists are used as radioligands for generating displacement curves and IC50 values with compounds of the invention. Cotransfection assays are carried out in CV-1 cells. The reporter plasmid contains an acylCoA oxidase (AOX) PPRE and TK promoter upstream of the luciferase reporter cDNA. Appropriate PPARs are constitutively expressed using plasmids containing the CMV promoter. For PPARα, interference by endogenous PPARγ in CV-1 cells is an issue. In order to eliminate such interference, a GAL4 chimeric system is used in which the DNA binding domain of the transfected PPAR is replaced by that of GAL4, and the GAL4 response element is utilized in place of the AOX PPRE. Cotransfection efficacy is determined relative to PPARα agonist reference molecules. Efficacies are determined by computer fit to a concentration-response curve, or in some cases at a single high concentration of agonist (10 μM).
(§2) These studies are carried out to evaluate the ability of compounds of the invention to bind to and/or activate various nuclear transcription factors, particularly huPPARα (“hu” indicates “human”). These studies provide in vitro data concerning efficacy and selectivity of compounds of the invention. Furthermore, binding and cotransfection data for compounds of the invention are compared with corresponding data for marketed compounds that act on huPPARα.

PPARδ receptor = molecular target: T3, PPARδ receptor (Homo sapiens, UniProt Q03181); assay: Binding and cotransfection studies, PPARδ ("binding assay")
T3 sequence (Q03181 1-441): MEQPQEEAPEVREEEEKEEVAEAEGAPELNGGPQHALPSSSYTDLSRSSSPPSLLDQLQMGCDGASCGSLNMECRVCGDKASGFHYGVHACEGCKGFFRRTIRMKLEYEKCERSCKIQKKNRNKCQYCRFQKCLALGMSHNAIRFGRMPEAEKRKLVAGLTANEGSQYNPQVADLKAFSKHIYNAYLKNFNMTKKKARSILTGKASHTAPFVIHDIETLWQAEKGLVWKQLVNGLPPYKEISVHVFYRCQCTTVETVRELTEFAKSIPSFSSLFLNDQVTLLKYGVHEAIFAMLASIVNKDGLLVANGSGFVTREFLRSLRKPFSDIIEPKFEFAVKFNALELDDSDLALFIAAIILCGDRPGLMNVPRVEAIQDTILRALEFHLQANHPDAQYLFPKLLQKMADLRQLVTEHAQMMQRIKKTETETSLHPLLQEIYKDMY
Procedure: as §1, §2

[2] = molecular target: T4, Pregnane X Receptor (PXR) (Homo sapiens, UniProt O75469); settings: reported in background section; cited from earlier work
T4 sequence (O75469 1-434): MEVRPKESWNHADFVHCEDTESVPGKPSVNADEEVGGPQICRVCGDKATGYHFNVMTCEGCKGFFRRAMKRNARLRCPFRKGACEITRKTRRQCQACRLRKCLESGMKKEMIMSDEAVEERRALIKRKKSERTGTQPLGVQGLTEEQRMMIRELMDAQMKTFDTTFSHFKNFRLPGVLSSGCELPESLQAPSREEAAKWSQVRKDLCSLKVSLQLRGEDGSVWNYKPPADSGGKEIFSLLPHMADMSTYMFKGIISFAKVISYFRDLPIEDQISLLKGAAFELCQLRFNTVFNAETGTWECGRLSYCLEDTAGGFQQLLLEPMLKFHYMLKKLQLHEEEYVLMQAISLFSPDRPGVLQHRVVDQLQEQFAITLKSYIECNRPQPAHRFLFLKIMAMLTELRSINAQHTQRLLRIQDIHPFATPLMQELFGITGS

Row | Compound | PXR (% efficacy versus max stimulation with Rifampicin) [1] [%] | pEC50 (PPARα receptor) | pEC50 (PPARδ receptor) | PXR activation [2]
1 | CC(C)(Oc1ccc(OC(CCCC(F)(F)F)c2nn(-c3ccc(C(F)(F)F)cc3)c(=O)n2-c2c(F)cccc2F)cc1)C(=O)O (racemic) [Example 57, 2-(4-{1-[4-(2,6-Difluoro-phenyl)-5-oxo-1-(4-trifluoromethyl-phenyl)-4,5-dihydro-1H-[1,2,4]triazol-3-yl]-5,5,5-trifluoro-pentyloxy}-phenoxy)-2-methyl-propionic acid] | 13.5 | 6.06 | 7.33 | 
2 | Cc1cc(OCc2nn(-c3ccc(C(F)(F)F)cc3)c(=O)n2C(C)C)ccc1OC(C)(C)C(=O)O [Example 1, 2-{4-[4-Isopropyl-5-oxo-1-(4-trifluoromethyl-phenyl)-4,5-dihydro-1H-[1,2,4]triazol-3-ylmethoxy]-2-methyl-phenoxy}-2-methyl-propionic acid] | 32.4 | 6.51 | 7.20 | 
3 | COCCn1c(COc2ccc(OC(C)(C)C(=O)O)c(C)c2)nn(-c2ccc(C(F)(F)F)cc2)c1=O [Example 2, 2-{4-[4-(2-Methoxy-ethyl)-5-oxo-1-(4-trifluoromethyl-phenyl)-4,5-dihydro-1H-[1,2,4]triazol-3-ylmethoxy]-2-methyl-phenoxy}-2-methyl-propionic acid] | 52.8 | 6.59 | 6.53 | 
4 | Cc1cc(OCc2nn(-c3ccc(C(F)(F)F)cc3)c(=O)n2-c2ccccc2F)ccc1OC(C)(C)C(=O)O [Example 13] | 57.8 | 7.71 | 7.85 | 
5 | Cc1c(C)c2c(c(C)c1O)CCC(C)(COc1ccc(CC3SC(=O)NC3=O)cc1)O2 (stereo not shown) [troglitazone] |  |  |  | activated the Pregnane X Receptor (PXR)
